From PMC7084345, “Differential Inhibitory Actions of Multitargeted Tyrosine Kinase Inhibitors on Different Ionic Current Types in Cardiomyocytes” (International Journal of Molecular Sciences, 2020)

Target: T1, KV7.1 (KCNQ1) channel, IK(S) (Rattus norvegicus, UniProt Q9Z0N7)
T1 construct: native IK(S) in H9c2 cells
T1 sequence (Q9Z0N7 1-669): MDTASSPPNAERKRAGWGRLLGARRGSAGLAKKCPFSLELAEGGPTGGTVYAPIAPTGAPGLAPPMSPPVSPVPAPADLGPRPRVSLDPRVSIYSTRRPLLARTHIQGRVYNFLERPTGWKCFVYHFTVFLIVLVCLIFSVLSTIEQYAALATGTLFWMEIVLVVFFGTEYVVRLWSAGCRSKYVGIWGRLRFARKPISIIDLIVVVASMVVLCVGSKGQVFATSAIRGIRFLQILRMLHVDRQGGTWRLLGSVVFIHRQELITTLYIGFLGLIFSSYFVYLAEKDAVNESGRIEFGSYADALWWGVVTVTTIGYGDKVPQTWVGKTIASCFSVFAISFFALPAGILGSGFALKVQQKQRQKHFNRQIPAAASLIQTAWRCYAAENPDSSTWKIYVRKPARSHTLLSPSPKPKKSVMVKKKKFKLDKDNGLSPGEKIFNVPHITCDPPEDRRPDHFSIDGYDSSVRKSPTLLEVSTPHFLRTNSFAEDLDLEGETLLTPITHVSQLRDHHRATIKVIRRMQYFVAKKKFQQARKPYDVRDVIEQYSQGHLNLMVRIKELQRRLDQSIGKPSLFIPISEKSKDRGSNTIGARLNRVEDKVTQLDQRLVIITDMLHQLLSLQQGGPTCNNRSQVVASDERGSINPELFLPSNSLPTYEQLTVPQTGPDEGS
Assay: whole-cell patch clamp of native IK(S) in H9c2 cells
Assay type: cell-based

Compound: CS(=O)(=O)CCNCc1ccc(-c2ccc3ncnc(Nc4ccc(OCc5cccc(F)c5)c(Cl)c4)c3c2)o1 [LAP, lapatinib]
- IC50: 1840 nM
